Data as given in ChEMBL document CHEMBL1201862, “PubChem BioAssay data set” (2004).
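96-well plates; 48 h exposure; 5 concentrations. Endpoints by linear interpolation between flanking doses. Not reached: highest tested concentration assigned. GI50: concentration for 50% inhibition of growth.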 Activity calls are given as the source filed them. Cut-off read from the data, not from the text of the source: active = GI50 up to about 1.1 µM and inactive = higher.

Tests used:
Assay in all cases: growth of human tumour cells (NCI), 48 h
[1] = test system: COLO 205
[2] = test system: HT-29
[3] = test system: UACC-62
[4] = test system: HCC 2998
[5] = test system: SF-539
[6] = test system: IGROV-1
[7] = test system: U-251
[8] = test system: MDA-N
[9] = test system: SK-MEL-5
[10] = test system: NCI-H23
[11] = test system: Malme-3M
[12] = test system: OVCAR-5
[13] = test system: NCI-H226
[14] = test system: NCI/ADR-RES
[15] = test system: LOX IMVI
[16] = test system: NCI-H522
[17] = test system: MDA-MB-231
[18] = test system: A498
[19] = test system: SN12C
[20] = test system: XF498

Row | Structure (SMILES) | GI50 [1] | GI50 [2] | GI50 [3] | GI50 [4] | GI50 [5] | GI50 [6] | GI50 [7] | GI50 [8] | GI50 [9] | GI50 [10] | GI50 [11] | GI50 [12] | GI50 [13] | GI50 [14] | GI50 [15] | GI50 [16] | GI50 [17] | GI50 [18] | GI50 [19] | GI50 [20]
1 | O=C1NC(c2cccc3ccccc23)Nc2ccc(Cl)cc21 (centres undefined) | 0.00239 µM (active) | 0.00166 µM (active) | 0.000214 µM (active) | 0.0105 µM (active) | < 0.01 µM (active) | 0.0181 µM (active) | 0.000977 µM (active) | < 0.0001 µM (active) | 0.00106 µM (active) | 0.0579 µM (active) | 0.00176 µM (active) | 0.0244 µM (active) | 0.00432 µM (active) | 0.00111 µM (active) | 0.000482 µM (active) | 0.000546 µM (active) | 0.00838 µM (active) | 0.00143 µM (active) | 0.00828 µM (active) | 
2 | Cc1nc2c(n1C(C)(C)C)C(=O)c1ccccc1C2=O | 64.1 µM (inactive) | 44.1 µM (inactive) | 44.3 µM (inactive) | > 100 µM (inactive) | > 100 µM (inactive) | 96.6 µM (inactive) | 84.5 µM (inactive) |  | 38.9 µM (inactive) | 37.8 µM (inactive) | 44.6 µM (inactive) |  | 67.9 µM (inactive) |  | 41.5 µM (inactive) | 44 µM (inactive) |  |  | 50.5 µM (inactive) | 44 µM (inactive)
3 | O=C1c2ccccc2C(=O)c2c1ccc1c3ccccc3n(Cc3ccccc3)c21 | > 100 µM (inactive) | > 100 µM (inactive) | > 100 µM (inactive) |  | > 100 µM (inactive) | > 100 µM (inactive) |  |  | > 100 µM (inactive) |  | > 100 µM (inactive) | > 100 µM (inactive) | 54.6 µM (inactive) |  | > 100 µM (inactive) | > 100 µM (inactive) |  |  | > 100 µM (inactive) | > 100 µM (inactive)
4 | Clc1ccc(-c2nc3cc(C45CC6CC(CC(C6)C4)C5)ccc3[nH]2)cc1 | 7.43 µM (inactive) | 3.72 µM (inactive) | 31.3 µM (inactive) | 31.7 µM (inactive) | 51.6 µM (inactive) | > 100 µM (inactive) | 20.1 µM (inactive) | 32.1 µM (inactive) | 7.18 µM (inactive) | 52.4 µM (inactive) | 24.5 µM (inactive) | > 100 µM (inactive) | > 65 µM (inactive) | 20.5 µM (inactive) | 18.3 µM (inactive) | 19.2 µM (inactive) | > 100 µM (inactive) | > 95.7 µM (inactive) | 50.5 µM (inactive) | 
5 | O=c1[nH]c(=O)n([C@H]2C[C@H](O)[C@@H](CO)O2)cc1Br [BROXURIDINE] | > 100 µM (inactive) | > 100 µM (inactive) | > 100 µM (inactive) | > 60.3 µM (inactive) | > 100 µM (inactive) | > 59.2 µM (inactive) | > 100 µM (inactive) | > 100 µM (inactive) | > 100 µM (inactive) | > 100 µM (inactive) | > 85.9 µM (inactive) | > 100 µM (inactive) | > 100 µM (inactive) | > 100 µM (inactive) | > 97.1 µM (inactive) | > 78.3 µM (inactive) | > 100 µM (inactive) | > 100 µM (inactive) | > 100 µM (inactive) | 
6 | O=C(O)CC(CC(=O)O)C(=O)O [TRICARBALLYLIC ACID] | > 100 µM (inactive) | > 100 µM (inactive) | > 100 µM (inactive) | > 100 µM (inactive) | > 100 µM (inactive) | > 100 µM (inactive) | > 100 µM (inactive) | > 100 µM (inactive) | > 100 µM (inactive) | > 100 µM (inactive) | > 100 µM (inactive) | > 100 µM (inactive) | > 100 µM (inactive) | > 100 µM (inactive) | > 100 µM (inactive) | > 100 µM (inactive) | > 100 µM (inactive) | > 100 µM (inactive) | > 100 µM (inactive) | 
